Test results reported in US20260001883A1, “5H-PYRROLO[2,3-D]PYRIMIDIN-6(7H)-ONE AND CRYSTAL OF SALT THEREOF” (priority 2022, published 2026).
Where a name gives a salt, the structure may show the parent alone.

Tests used:
Assay type in all cases: physicochemical
[1] = Solid state stability test (preservation stability, 70° C./75% RH, 2 weeks); conditions: for Appearance change / Total amount of analogous substances (%) 70° C./75% RH (closed system) / Total amount of analogous substances (%) 70° C./75% RH (open system) / amount of analogous substances after preservation (in words) / Powder X-ray diffraction pattern (change after preservation): after 2 weeks at 70° C./75% RH; for Total amount of analogous substances (%) 70° C./75% RH (closed system) / Total amount of analogous substances (%) 70° C./75% RH (open system) / Total amount of analogous substances (%) Initial value: HPLC; for Total amount of analogous substances (%) Initial value: before preservation, UV 220 nm
Method: The preservation stability of each of the type I crystal, type II crystal, and type III crystal of the free base of Compound (I), which were produced according to the methods described in Examples 1, 2 and 3 above, respectively, was tested under the following conditions. • Preservation conditions: 70° C./75% RH (open system and closed system) • Measuring point: 2 weeks • Preserved amount: about 50 mg • Preservation container: brown glass bottle
The powder X-ray diffraction of the sample after preservation was measured according to the aforementioned method. A change in the amount of analogous substances (the amount of substances detected other than Compound (I)) was measured by weighing out about 1 mg of the sample, dissolving it in about 5 mL of a water/acetonitrile mixed solution (1:1), accurately measuring 5 μL of this solution, and analyzing it by HPLC using the following method. • Column: InertSustain C18, 4.6×150 mm, 3 μm • Column temperature: 40° C. • Column flow rate: 1.0 mL/min • Mobile phase: A—10 mM phosphate buffer (pH 5.5)/acetonitrile (9:1); B—acetonitrile • Detection UV: 220 nm • Gradient: […]
The crystal of the hydrochloride of Compound (I), the crystal of the maleate of Compound (I), the crystal of ½ malate of Compound (I), and the crystal of the acetate of Compound (I),which were produced according to the methods described in Example 4, Example 5, Comparative Example 1, and Comparative Example 2, were tested in terms of preservation stability under the conditions of Test Example 1.

[2] = Dynamic moisture adsorption/desorption test; conditions: 25° C., humidity 5% RH to 95% RH and back to 5% RH
Method: For the test, a VTI-SA+ (TA Instruments) was used. About 10 mg of each of a free base type I crystal, a free base type II crystal, and a […] was weighed, and was placed in a pan. While confirming that the weight fluctuation was within 0.0100% in 5 minutes, the temperature was raised up to 60° C. at 1 degree per minute. If the weight fluctuated, the temperature was maintained for a maximum of 5 hours before proceeding to the next step. Thereafter, the temperature was lowered to 25° C., and the humidity was raised from 5% RH to 95% RH, and was then lowered to 5% RH. At that time, the humidity was changed by 5% RH while confirming that the weight fluctuation was within 0.00100% in 5 minutes. If the weight fluctuated, the humidity was maintained for a maximum of 2 hours before proceeding to the next step.
The crystal of the hydrochloride of Compound (I), the crystal of the maleate of Compound (I), the crystal of ½ malate of Compound (I), and the crystal of the acetate of Compound (I),which were produced according to the methods described in Example 4, Example 5, Comparative Example 1, and Comparative Example 2, were tested in terms of preservation stability under the conditions of Test Example 2.

[3] = Heat stability test (powder X-ray diffraction under heating to 210° C.); conditions: heating from 25° C. to 210° C.
Method: Using the free base type I crystal, the free base type II crystal, and the free base type III crystal, which were produced according to the methods described in Examples 1, 2 and 3 above, a heat stability test was carried out.
Powder X-ray diffraction measurement was carried out at 25° C., and the temperature was raised to 50° C. over 30 minutes, after which powder X-ray diffraction measurement was carried out. Thereafter, the temperature was further raised to 210° C. at 10° C./10 minutes, and powder X-ray diffraction measurement was then carried out. After that, the temperature was lowered to 25° C. over 30 minutes, and powder X-ray diffraction measurement was then carried out.

[4] = listed as crystal of the acetate of Compound (I)
[5] = listed as crystal of the hydrochloride of Compound (I)
[6] = listed as crystal of the maleate of Compound (I)
[7] = listed as crystal of the ½ malate of Compound (I)
[8] = listed as free base type III crystal
[9] = listed as free base type II crystal

SMILES | Appearance change [1] | Total amount of analogous substances (%) 70° C./75% RH (closed system) [1] | Total amount of analogous substances (%) 70° C./75% RH (open system) [1] | Total amount of analogous substances (%) Initial value [1] | Powder X-ray diffraction pattern (change after preservation) [1] | also measured
CC(C)(C)NCCNc1ccc(-c2nnc(C(F)(F)F)o2)nc1C1CCN(c2ncnc3c2C(C)(C)C(=O)N3)CC1 [Crystal of acetate, 4-(4-(3-((2-(tert-butylamino)ethyl)amino)-6-(5-(trifluoromethyl)-1,3,4-oxadiazol-2-yl)pyridin-2-yl)piperidin-1-yl)-5,5-dimethyl-5H-pyrrolo[2,3-d]pyrimidin-6(7H)-one] | No significant | 0.3% | 1.1% | 0.3% |  | Appearance change [1, 4]: no change in appearance; amount of analogous substances after preservation (in words) [1, 4]: large amounts of analogous substances
CC(C)(C)NCCNc1ccc(-c2nnc(C(F)(F)F)o2)nc1C1CCN(c2ncnc3c2C(C)(C)C(=O)N3)CC1 [Crystal of hydrochloride, 4-(4-(3-((2-(tert-butylamino)ethyl)amino)-6-(5-(trifluoromethyl)-1,3,4-oxadiazol-2-yl)pyridin-2-yl)piperidin-1-yl)-5,5-dimethyl-5H-pyrrolo[2,3-d]pyrimidin-6(7H)-one] | No significant | 0.2% | 0.2% | 0.2% | No significant | Appearance change [1, 5]: no change was observed in appearance; Powder X-ray diffraction pattern (change after preservation) [1, 5]: no changes; amount of analogous substances after preservation (in words) [1, 5]: only small amounts of analogous substances; hygroscopicity (moisture adsorption/desorption isotherm) ([2]; listed as crystal of the hydrochloride): lower hygroscopicity than the crystal of the ½ malate
CC(C)(C)NCCNc1ccc(-c2nnc(C(F)(F)F)o2)nc1C1CCN(c2ncnc3c2C(C)(C)C(=O)N3)CC1 [Crystal of maleate, 4-(4-(3-((2-(tert-butylamino)ethyl)amino)-6-(5-(trifluoromethyl)-1,3,4-oxadiazol-2-yl)pyridin-2-yl)piperidin-1-yl)-5,5-dimethyl-5H-pyrrolo[2,3-d]pyrimidin-6(7H)-one] | No significant | 0.1% | 0.1% | 0.1% | No significant | Appearance change [1, 6]: no change was observed in appearance; Powder X-ray diffraction pattern (change after preservation) [1, 6]: no changes; amount of analogous substances after preservation (in words) [1, 6]: only small amounts of analogous substances; hygroscopicity (moisture adsorption/desorption isotherm) ([2]; listed as crystal of the maleate): low hygroscopicity
CC(C)(C)NCCNc1ccc(-c2nnc(C(F)(F)F)o2)nc1C1CCN(c2ncnc3c2C(C)(C)C(=O)N3)CC1 [Crystal of ½ malate, 4-(4-(3-((2-(tert-butylamino)ethyl)amino)-6-(5-(trifluoromethyl)-1,3,4-oxadiazol-2-yl)pyridin-2-yl)piperidin-1-yl)-5,5-dimethyl-5H-pyrrolo[2,3-d]pyrimidin-6(7H)-one] | No significant | 5.2% | 64.0% | 0.4% |  | Appearance change [1, 7]: no change in appearance; amount of analogous substances after preservation (in words) [1, 7]: large amounts of analogous substances
CC(C)(C)NCCNc1ccc(-c2nnc(C(F)(F)F)o2)nc1C1CCN(c2ncnc3c2C(C)(C)C(=O)N3)CC1 [Frcc body type III crystal, 4-(4-(3-((2-(tert-butylamino)ethyl)amino)-6-(5-(trifluoromethyl)-1,3,4-oxadiazol-2-yl)pyridin-2-yl)piperidin-1-yl)-5,5-dimethyl-5H-pyrrolo[2,3-d]pyrimidin-6(7H)-one] | No significant | 0.7% | 0.8% | 0.5% | No significant | Powder X-ray diffraction pattern (change after preservation) ([1]; listed as type III crystal): no change was observed; change of crystal form under heating (powder X-ray diffraction) [3, 8]: new peaks appeared; hygroscopicity (moisture adsorption/desorption isotherm) [2]: excellent low hygroscopicity; hygroscopicity (moisture adsorption/desorption isotherm) [2, 8]: low hygroscopicity
CC(C)(C)NCCNc1ccc(-c2nnc(C(F)(F)F)o2)nc1C1CCN(c2ncnc3c2C(C)(C)C(=O)N3)CC1 [Free body type I crystal, 4-(4-(3-((2-(tert-butylamino)ethyl)amino)-6-(5-(trifluoromethyl)-1,3,4-oxadiazol-2-yl)pyridin-2-yl)piperidin-1-yl)-5,5-dimethyl-5H-pyrrolo[2,3-d]pyrimidin-6(7H)-one] | No significant | 0.5% | 0.5% | 0.6% | No significant | Powder X-ray diffraction pattern (change after preservation) ([1]; listed as type I crystal): no change was observed; change of crystal form under heating (powder X-ray diffraction) ([3]; listed as free base type 1 crystal): no changes were observed in the crystal form; hygroscopicity (moisture adsorption/desorption isotherm) [2]: excellent low hygroscopicity; hygroscopicity (moisture adsorption/desorption isotherm) ([2]; listed as free base type I crystal): low hygroscopicity
CC(C)(C)NCCNc1ccc(-c2nnc(C(F)(F)F)o2)nc1C1CCN(c2ncnc3c2C(C)(C)C(=O)N3)CC1 [Free body type II crystal, 4-(4-(3-((2-(tert-butylamino)ethyl)amino)-6-(5-(trifluoromethyl)-1,3,4-oxadiazol-2-yl)pyridin-2-yl)piperidin-1-yl)-5,5-dimethyl-5H-pyrrolo[2,3-d]pyrimidin-6(7H)-one] | No significant | 0.5% | 0.6% | 0.5% | No significant | Powder X-ray diffraction pattern (change after preservation) ([1]; listed as type II crystal): no change was observed; change of crystal form under heating (powder X-ray diffraction) [3, 9]: new peaks appeared; hygroscopicity (moisture adsorption/desorption isotherm) [2, 9]: low hygroscopicity
